Laboratory results published in patent publication US5780509A, “Compound bearing two, 2,6-diiodophenol-4-YL groups and diagnostic drug for iodine allergy” (Muromachi Kagaku Kogyo Kaisha, Ltd., priority 1994, dated 1998).
Non-standard residues stand in square brackets, D forms with d. Residues, ends and D or L forms follow the SMILES beside them. No end group written: not given here. Tyr(3,5-I2) = N[C@@H](Cc1cc(I)c(O)c(I)c1)C(=O)O

Tests used:
anti-iodine antibody = test: ELISA inhibition on anti-iodine antibody (single concentration); format: binding, guinea-pig; set-up: key to ELISA inhibitory activity, judgment: +: a compound had inhibitory activity; -: a compound did not have inhibitory activity
Description: Guinea-pigs were immunized with iodine by injecting subcutaneously 1 mg of iodine containing potassium iodide solution treated with complete Freund's adjuvant seven times at intervals of 2 weeks, and anti-iodine antiserum was obtained from these animals. Antibody titers of the sera were determined by enzyme linked immunosorbent assay (ELISA) using 96 well microplate coated with iodinated guinea pig serum albumin (I-GSA) ELISA inhibition activities of the following compounds were studied. The compounds used were potassium iodide, tyrosine and its derivatives such as L-tyrosine, monoiodo-L-tyrosine, diiodotyrosine, hexaiodo-L-trityrosine, L-hexatyrosine and 12 iodo-L-hexatyrosine, and iodinated X-ray contrast media such as amidotrizoic acid, iodamide, ioxaglic acid, iohexol, iopamidol and iomeprol.
ELISA inhibition study was performed as follows. Antibody concentration of anti-iodine antiserum gave the maximum optical density in ELISA till one hundredfold serum dilution. Accordingly, seven steps of twofold serial dilution of anti-iodine antiserum, starting from 50-fold serum dilution, were made with physiological saline as a diluent. To each of the serially diluted sera, were added equal volume of solution containing each of the test compounds described above. After overnight incubation at 4 C, antibody activity was determined by ELISA. Phosphate buffered physiological saline (PBS) was used as a control. ELISA inhibitory activities of the test compounds were determined at the serum dilution which gave about 50% of the maximum optical density (OD415nm =2.6) of ELISA of control at serum dilution of one hundredfold. The inhibitory activity was calculated by the following calculation formula.
Inhibition rate=[1-Optical density under test compouund/Optical density

[1] = system: guinea-pigs immunized with iodine (iodine-sensitized) and non-sensitized guinea-pigs; test: Active cutaneous anaphylaxis (ACA) reaction, elicitation antigenicity; format: in vivo, guinea-pig (male SPF, Hartley strain); set-up: key to Mean diameter of blue spots, non-sensitized guinea-pig / Mean diameter of blue spots, iodine-sensitized guinea pig (second value) / Mean diameter of blue spots, iodine-sensitized guinea pig (first value): --: Negative response; **: Weak response; details: for Mean diameter of blue spots, iodine-sensitized guinea pig (first value) / Mean diameter of blue spots, iodine-sensitized guinea pig (second value) / Mean diameter of blue spots, non-sensitized guinea-pig: 30 min; for ACA reaction (in words): intradermal injection, guinea-pigs sensitized with iodine
Source text: The elicitation antigenicity of iodinated tyrosine derivatives was studied in the bases of the active cutaneous anaphylaxis (ACA) reaction in guinea-pigs immunized with iodine.
Animals: Male SPF guinea-pigs of Hartley strain, weighing 300~350 g were purchased from Charles River Japan Co., Ltd. These were immunized after having been acclimated for one week.
Sensitization: A solution of iodine potassium iodide (Wako Junyaku, special grade reagent) and complete Freund's adjuvant (Difco) were mixed in equal amounts to form an emulsion. This was administered subcutaneously into the back of guinea-pigs at a dose of 2 mg of iodine per animal 3 times at intervals of 2 weeks. Active cutaneous anaphylaxis (ACA) was elicited 2 weeks after the last sensitization injection.
ACA Induction: 2% Evans blue physiological solution (0.5 ml/animal) was administered intravenously to guinea-pigs, and immediately thereafter 0.1 ml of an elicitation antigen was administered intradermally into the back, and after 30 min. the existence of pigment leakage at the intradermally injected sites was observed.
Elicitation antigen: Iodinated dityrosine, iodinated trityrosine, iodinated dityrosylphenylalanine were administered intracutaneously at 0.1 ml/site. Guinea-pig serum albumin (fraction V: Sigma) was iodinated and used as a positive control. Corresponding noniodinated ones were also administered intradermally as negative controls.
Iodination reaction: To a 50 mM boric acid buffer solution (pH 9.5) of 10 mg/ml of dityrosine, trityrosine, or dityrosylphenylalanine (all produced by Sigma Co., Ltd.) or guinea-pig serum albumin (abbreviated hereafter as GSA), a 0.5M solution of iodine was added at a ratio of 10:1, and these were reacted at 37 C. overnight. The excess iodine in the reaction mixture was reduced by adding sodium thiosulfate (Nakarai Chemical Co., Ltd.). For purification of the iodinated tyrosine derivatives, the reaction mixture was extracted with ethyl acetate and dried with magnesium sulfate, and hexane was added to obtain crystals. For purification of the iodinated GSA, the reaction mixture was purified by passing it through a Sephadex G25 column.

CNC(=O)c1c(I)c(C(=O)NCC(=O)Nc2c(I)c(C(=O)O)c(I)c(C(=O)NCCO)c2I)c(I)c(N(C)C(C)=O)c1I [Ioxaglic acid]
ELISA inhibition rate (anti-iodine antibody; 10 mM): -9.4%
ELISA inhibitory activity, judgment (anti-iodine antibody; 10 mM): +

CC(=O)Nc1c(I)c(NC(C)=O)c(I)c(C(=O)O)c1I [Amidotrizoic acid]
ELISA inhibition rate (anti-iodine antibody; 10 mM): 0.3%
ELISA inhibitory activity, judgment (anti-iodine antibody; 10 mM): -

[I-].[K+] [Potassium iodide]
ELISA inhibition rate (anti-iodine antibody; 10 mM): 0%
ELISA inhibitory activity, judgment (anti-iodine antibody; 10 mM): -

N[C@@H](Cc1ccc(O)c(I)c1)C(=O)O [Monoiodo-L-tyrosine]
ELISA inhibition rate (anti-iodine antibody; 10 mM): 5.6%
ELISA inhibitory activity, judgment (anti-iodine antibody; 10 mM): -

N[C@@H](Cc1ccc(O)cc1)C(=O)N[C@@H](Cc1ccc(O)cc1)C(=O)O [reference compound] (H-Tyr-Tyr-OH)
Mean diameter of blue spots, iodine-sensitized guinea pig (first value) ([1]; 1000 μg/site intradermal): --
Mean diameter of blue spots, iodine-sensitized guinea pig (second value) ([1]; 1000 μg/site intradermal): --
Mean diameter of blue spots, non-sensitized guinea-pig ([1]; 1000 μg/site intradermal): --

CC(=O)NCc1c(I)c(NC(C)=O)c(I)c(C(=O)O)c1I [Iodamide]
ELISA inhibition rate (anti-iodine antibody; 10 mM): 3.5%
ELISA inhibitory activity, judgment (anti-iodine antibody; 10 mM): +

N[C@@H](Cc1ccc(O)cc1)C(=O)N[C@@H](Cc1ccc(O)cc1)C(=O)N[C@@H](Cc1ccccc1)C(=O)O [Dityrosylphenylalanine, L-tyrosyl-L-tyrosylphenylalanine, reference compound] (H-Tyr-Tyr-Phe-OH)
Mean diameter of blue spots, iodine-sensitized guinea pig (first value) ([1]; 1000 μg/site intradermal): --
Mean diameter of blue spots, iodine-sensitized guinea pig (second value) ([1]; 1000 μg/site intradermal): --
Mean diameter of blue spots, non-sensitized guinea-pig ([1]; 1000 μg/site intradermal): --

N[C@@H](Cc1cc(I)c(O)c(I)c1)C(=O)N[C@@H](Cc1cc(I)c(O)c(I)c1)C(=O)O (H-[Tyr(3,5-I2)]-[Tyr(3,5-I2)]-OH)
Mean diameter of blue spots, iodine-sensitized guinea pig (first value) ([1]; 1 μg/site intradermal): --
Mean diameter of blue spots, iodine-sensitized guinea pig (second value) ([1]; 1 μg/site intradermal): --
Mean diameter of blue spots, non-sensitized guinea-pig ([1]; 1 μg/site intradermal): --
Mean diameter of blue spots, iodine-sensitized guinea pig (first value) ([1]; 10 μg/site intradermal): 5.0 mm
Mean diameter of blue spots, iodine-sensitized guinea pig (second value) ([1]; 10 μg/site intradermal): --
Mean diameter of blue spots, non-sensitized guinea-pig ([1]; 10 μg/site intradermal): --
Mean diameter of blue spots, iodine-sensitized guinea pig (first value) ([1]; 100 μg/site intradermal): 7.0 mm
Mean diameter of blue spots, iodine-sensitized guinea pig (second value) ([1]; 100 μg/site intradermal): 5.0 mm
Mean diameter of blue spots, non-sensitized guinea-pig ([1]; 100 μg/site intradermal): --
ACA reaction (in words) [1]: ACA reaction was elicited

CC(=O)N(CC(O)CO)c1c(I)c(C(=O)NCC(O)CO)c(I)c(C(=O)NCC(O)CO)c1I (stereo not shown) [Iohexol]
ELISA inhibition rate (anti-iodine antibody; 10 mM): -5.0%
ELISA inhibitory activity, judgment (anti-iodine antibody; 10 mM): +

YYYYYY [L-Hexatyrosine]
ELISA inhibition rate (anti-iodine antibody; 1 mM): 0%
ELISA inhibitory activity, judgment (anti-iodine antibody; 1 mM): -

N[C@@H](Cc1cc(I)c(O)c(I)c1)C(=O)N[C@@H](Cc1cc(I)c(O)c(I)c1)C(=O)N[C@@H](Cc1ccccc1)C(=O)O [Iodinated dityrosylphenylalanine] (H-[Tyr(3,5-I2)]-[Tyr(3,5-I2)]-Phe-OH)
Mean diameter of blue spots, iodine-sensitized guinea pig (first value) ([1]; 1 μg/site intradermal): --
Mean diameter of blue spots, iodine-sensitized guinea pig (second value) ([1]; 1 μg/site intradermal): --
Mean diameter of blue spots, non-sensitized guinea-pig ([1]; 1 μg/site intradermal): --
Mean diameter of blue spots, iodine-sensitized guinea pig (first value) ([1]; 10 μg/site intradermal): 7.0 mm
Mean diameter of blue spots, iodine-sensitized guinea pig (second value) ([1]; 10 μg/site intradermal): --
Mean diameter of blue spots, non-sensitized guinea-pig ([1]; 10 μg/site intradermal): --
Mean diameter of blue spots, iodine-sensitized guinea pig (first value) ([1]; 100 μg/site intradermal): 8.0 mm
Mean diameter of blue spots, iodine-sensitized guinea pig (second value) ([1]; 100 μg/site intradermal): 3.0 mm
Mean diameter of blue spots, non-sensitized guinea-pig ([1]; 100 μg/site intradermal): --
ACA reaction (in words) [1]: ACA reaction was elicited

N[C@@H](Cc1ccc(O)cc1)C(=O)N[C@@H](Cc1ccc(O)cc1)C(=O)N[C@@H](Cc1ccc(O)cc1)C(=O)O [Trityrosine, trityrosine, reference compound] (H-Tyr-Tyr-Tyr-OH)
Mean diameter of blue spots, iodine-sensitized guinea pig (first value) ([1]; 1000 μg/site intradermal): --
Mean diameter of blue spots, iodine-sensitized guinea pig (second value) ([1]; 1000 μg/site intradermal): --
Mean diameter of blue spots, non-sensitized guinea-pig ([1]; 1000 μg/site intradermal): --

CN(C(=O)CO)c1c(I)c(C(=O)NCC(O)CO)c(I)c(C(=O)NCC(O)CO)c1I (stereo not shown) [Iomeprol]
ELISA inhibition rate (anti-iodine antibody; 10 mM): -1.8%
ELISA inhibitory activity, judgment (anti-iodine antibody; 10 mM): +

N[C@@H](Cc1ccc(O)cc1)C(=O)O [L-Tyrosine]
ELISA inhibition rate (anti-iodine antibody; 10 mM): -2.6%
ELISA inhibitory activity, judgment (anti-iodine antibody; 10 mM): -

C[C@H](O)C(=O)Nc1c(I)c(C(=O)NC(CO)CO)c(I)c(C(=O)NC(CO)CO)c1I [Iopamidol]
ELISA inhibition rate (anti-iodine antibody; 10 mM): -6.5%
ELISA inhibitory activity, judgment (anti-iodine antibody; 10 mM): +
